This assay in a line: cellular cytoskeleton assembly phenotype modulators – imaging, high-content imaging, retest and dose response, confirmation (AID 1249).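 On all read-outs here: compound exposure lasted 24 h before fixation.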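 On inhibition: plate controls were untreated cells for no effect and reference compound treated cells for full effect.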 The following applies: cell-based imaging, cytoskeleton assembly phenotype, high content; for inhibition: at 2 µM, stronger effect = higher value.

The source made the active and inactive calls. How the calls were made is not given here.

Take `COc1ccc(C(C)(C)C)cc1S(=O)(=O)N1CCN(C)CC1`: the inhibition was -1.6% (inactive).

Turning to `CC1(C)OC(=O)C(=NNc2ccc(O)cc2)C(=O)O1`, the inhibition was -11.1% (inactive).

Take `Cc1cccc(NC(=O)Cn2nc(C(F)(F)F)cc2C2CC2)c1`: the inhibition was -14.3% (inactive).

As to `O=C1CCSc2cccc3cccc(c23)N1`, the inhibition was -5.2% (inactive).

Consider `CC(=O)Nc1nc2n(n1)C(c1ccc(F)cc1)C=C(c1ccccc1)N2` (stereo not drawn), for which the inhibition was 13.3% (inactive).

In the case of `CCN(CC)C(=O)CN(c1ccc(Cl)cc1)S(=O)(=O)c1ccccc1`, the inhibition was 0.4% (inactive).

With `O=C(CN1CCCCCC1=O)OCc1ncc(-c2ccccc2)o1`, the inhibition was -11.1% (inactive).

With `CCOc1ccccc1/C=N/Nc1ccccc1[N+](=O)[O-]`, the inhibition was -0.7% (inactive).

`CCn1c(CN2CCN(c3ccc(Cl)cc3)CC2)nc2ccccc21`: the inhibition was -1% (inactive).

Consider `NC(=S)N/N=C\c1ccc(-c2cccc(Cl)c2Cl)o1`, for which the inhibition was -8.9% (inactive).

For the compound `O=C(CN1CCC(c2nc3ccccc3s2)CC1)NCc1cccs1`, the inhibition is 4% (inactive).

`Clc1ccc(-n2ncc3c(NCc4ccc5c(c4)OCO5)ncnc32)cc1`: the inhibition was 2.6% (inactive).

Take `O=C1N2CCSC2=NC1(Nc1ccccn1)C(F)(F)F` (stereo not drawn): the inhibition is -0.2% (inactive).

On to `c1ccc(-c2nnc(CSc3nncs3)o2)cc1`, for which the inhibition is -7.1% (inactive).

As to `CCOc1ccc2nc(C)cc(Nc3ccc4c(c3)OCCO4)c2c1`, the inhibition was 7.5% (inactive).

Regarding `O=C(O)C1CC=CCC1C(=O)N1CCCC1` (stereo not drawn), the inhibition is 5.5% (inactive).

`O=C(OCn1ncc(Br)c(Br)c1=O)c1ccc(F)cc1`: the inhibition was 10.9% (inactive).

Consider `Cc1cccc(CS(=O)(=O)c2nnc([C@H](Cc3ccccc3)NC(=O)OC(C)(C)C)o2)c1`, for which the inhibition was -5% (inactive).

Consider `COc1cc2c(cc1OC)/C(=C/C#N)NC(C)(C)C2`, for which the inhibition was 1.8% (inactive).

Compound `COc1cc(C2C(C#N)=C(N)Oc3cc(N(C)C)ccc32)cc2c1OCO2` (stereo not drawn) displayed a cell count (cell count, at 10 µM, stronger effect = lower value) of 39.3%.

Turning to `N#Cc1cc2c(nc1SCC(=O)N1CCCCC1)CCCC2`, the inhibition was 2.1% (inactive).

`CCCCn1cnc2c1c(=O)[nH]c(=O)n2CCCC`: the inhibition is -11.3% (inactive).

As for `Nc1ccccc1NC(=O)c1ccccc1N`, the inhibition is 3.6% (inactive).

On to `CCOc1ccc(-n2cc(C(=O)NCc3ccco3)c3cc(OC)c(OC)cc3c2=O)cc1`, for which the inhibition is -5.9% (inactive).

Regarding `CC(/C=C/c1ccco1)=N\NC(=O)c1cc(C)[nH]n1`, the inhibition is -14.4% (inactive).

Regarding `CCOc1ccc2[nH]c(=O)c(CN(Cc3ccccc3)C(=O)N3CCCC3)cc2c1`, the inhibition is 12.4% (inactive).

As for `CC(NC(=O)COC(=O)Cc1ccsc1)C1CC2CCC1C2` (stereo not drawn), the inhibition was -7.6% (inactive).

On to `Cc1ccccc1Cn1nc(C)c(NC(=O)c2cc(-c3cccs3)on2)c1C`, for which the inhibition is 3.8% (inactive).

Regarding `Cn1nc(C(=O)NCC2CCCO2)c2ccccc2c1=O` (stereo not drawn), the inhibition was 0% (inactive).

`CCOC(=O)Cn1c(SC)nc2sc3c(c2c1=O)CC(C)(C)OC3`: the inhibition is -24.8% (inactive).

With `Cc1ccc(CC2S/C(=C(/C#N)C(=O)NCc3ccco3)N(c3ccccc3)C2=O)cc1` (stereo not drawn), the inhibition is 2.8% (inactive).

Consider `O=C(C1CCC1)N1CCc2cc(S(=O)(=O)Nc3ccc4c(c3)OCCO4)ccc21`, for which the inhibition is 3.8% (inactive).

For the compound `CCCCN(C(=O)NC(=O)Nc1cccc(C)c1C)S(C)(=O)=O`, the inhibition was 1.6% (inactive).

Regarding `Cc1ccc(OCC(=O)N2CCN(C(=O)Cc3ccccc3)CC2)cc1`, the inhibition is -4.3% (inactive).

For the compound `Cc1ccc(-c2nc(NC(=O)c3nn(C)cc3[N+](=O)[O-])sc2C)cc1`, the inhibition is 5.1% (inactive).

Regarding `CS(=O)(=O)N(CC(=O)NCc1ccccc1Cl)Cc1ccccc1`, the inhibition was 0% (inactive).

As to `Cc1nn(S(=O)(=O)c2ccccc2)c(C)c1Sc1ccc([N+](=O)[O-])cc1`, the inhibition is 2.5% (inactive).

In the case of `COC(=O)c1[nH]c2cc(OC)ccc2c1NC(=O)CN1CCC(C(N)=O)(N2CCCCC2)CC1`, the inhibition was 3.6% (inactive).

Turning to `COc1ccc(-c2nnc(SCC(=O)NC3CCCCC3)o2)cc1OC`, the inhibition is -3.7% (inactive).

Take `O=C(c1ccc2snnc2c1)N1CCSCC1`: the inhibition is -15.8% (inactive).

With `CCCCNC(=O)CSc1cc(=O)n(C)c2ccccc12`, the inhibition was -21.1% (inactive).

For the compound `CCOC(=O)Cc1cc(-c2ccc(O)cc2)nc2ccc3ccccc3c12`, the inhibition is -11.7% (inactive).

Consider `CCn1c(Cc2ccccc2)nnc1SCC(=O)NC1CC1`, for which the inhibition is 10.7% (inactive).

For the compound `C#CC(=O)N(c1cccc(OC)c1)C(C(=O)NC1CCCC1)c1cccs1` (stereo not drawn), the inhibition is -5.8% (inactive).

Regarding `O=C(O)C1CCC(N2C(=O)C3CCCCC3C2=O)CC1` (stereo not drawn), the inhibition is -0.4% (inactive).

Regarding `Cc1nc2sc(C(c3ccc(Cl)cc3)N3CC(C)OC(C)C3)c(O)n2n1` (stereo not drawn), the inhibition is -4.4% (inactive).

With `CCOC(=O)c1ccc(NC(=O)CCNc2c(N3CCCC3)c(=O)c2=O)cc1`, the inhibition is 1.6% (inactive).

Regarding `COC(=O)c1sccc1NC(=O)c1ccc(Br)s1`, the inhibition was 1.8% (inactive).

`COc1ccc2[nH]c(=O)c(CN(Cc3ccc4c(c3)OCO4)C(C)=O)cc2c1`: the inhibition was 5.1% (inactive).

For the compound `COc1cc(C(=O)N(Cc2ccco2)Cc2cc3ccccc3[nH]c2=O)cc(OC)c1OC`, the inhibition was -1% (inactive).

For `CCOC(=O)c1ccc(CNC(=O)CCC(=O)O)cc1`, the inhibition is -7% (inactive).

Turning to `CC(=O)c1cccc(NC(=O)c2cc(-c3ccc(F)cc3)on2)c1`, the inhibition was 0.8% (inactive).

Regarding `CC1CC(=O)NN=C1c1ccc(NCCO)c([N+](=O)[O-])c1` (stereo not drawn), the inhibition was -4.6% (inactive).

As for `Cc1cccc(C(=O)Oc2ccccc2C2C[C@]3(C)CC(=O)NC3N2C(=O)c2cccc(C)c2)c1` (stereo partly drawn), the inhibition is -5.8% (inactive).

For `O=[N+]([O-])/C=C/c1c(OCc2ccccc2)ccc2ccccc12`, the inhibition was -14.2% (inactive).

Consider `COc1ccc(S(=O)(=O)N2CCCC2C(=O)Nc2ccc(C)cc2)cc1` (stereo not drawn), for which the inhibition is 3.2% (inactive).

`CC(C)n1c(C(=O)OCC(=O)NCc2ccc3c(c2)OCO3)cc2sccc21`: the inhibition is 14.1% (inactive).

`CN1CCc2nc3sc(C#N)c(N)c3c(-c3cccs3)c2C1`: the inhibition is 5.3% (inactive).

As to `COC(=O)C1C(=O)C2=C(CC1C)NC(=O)CC2c1cccc(C)c1` (stereo not drawn), the inhibition was -3.5% (inactive).

Regarding `N#Cc1c(N)nc(SCC(=O)NCc2ccc3c(c2)OCO3)c(C#N)c1-c1cccs1`, the inhibition was 0.2% (inactive).

Take `CC(C)(C)NC(=O)C1N(c2cccnc2)C(=O)C2C(C(=O)Nc3ccccc3F)C3(C)C=CC21O3` (stereo not drawn): the inhibition is -29.5% (inactive).

As for `Cc1ccc(S(=O)(=O)c2cc(C#N)c(=O)[nH]c2N)cc1`, the inhibition was 9.1% (inactive).

With `CC(=O)c1c(C(C)=O)c(C)n(NC(=O)c2ccccc2O)c1C`, the inhibition is -15.8% (inactive).

For `CCn1c(SCC(=O)NC(C)c2ccccc2)nc2ccccc21` (stereo not drawn), the inhibition was 0.7% (inactive).

On to `COc1ccccc1/C=N/NC(=O)C(NC(=O)c1ccccc1)=C(C)C`, for which the inhibition was 5.8% (inactive).

With `CCOc1ccccc1N1C(=O)NC(=O)C(CCc2ccncc2)(CCc2ccncc2)C1=O`, the inhibition is -4.8% (inactive).

Consider `O=C(Cn1ncc2c(=O)oc3ccccc3c21)NCCC1=CCCCC1`, for which the inhibition was -3.1% (inactive).

In the case of `O=C(NC(Cc1c[nH]c2ccccc12)C(=O)O)c1ccco1` (stereo not drawn), the inhibition was -3% (inactive).

Regarding `O=C(COC(=O)C1c2ccccc2Oc2ccccc21)NC1CCS(=O)(=O)C1` (stereo not drawn), the inhibition was -16.7% (inactive).

As to `c1ccc(-n2ncc3c(NCc4ccccn4)ncnc32)cc1`, the inhibition is 24.5% (inactive).

Consider `Cc1ccc(Cl)cc1NC1=C/C(=N\S(=O)(=O)c2cccs2)c2ccccc2C1=O`, for which the inhibition is -8% (inactive).

Take `Cc1nc(SCc2ccc(Br)cc2)[nH]c(=O)c1C`: the inhibition was -1.2% (inactive).

Regarding `O=C(Oc1ccc2ccc(=O)oc2c1)N1CCOCC1`, the inhibition is -7.8% (inactive).

Consider `CCOC(=O)N1CCN(C(=O)c2ccc3c(c2)NC(=O)C(N2CCOCC2)S3)CC1` (stereo not drawn), for which the inhibition was -8.5% (inactive).

Consider `Nn1c(SCC(=O)Nc2ccc3c(c2)OCCO3)nnc1C(F)(F)F`, for which the inhibition was -22.1% (inactive).

Turning to `COc1ccc(C(c2sc3ncnn3c2O)N2CC(C)OC(C)C2)cc1OC` (stereo not drawn), the inhibition was 5% (inactive).

Take `O=C(CN1CCN(c2nc(-c3ccc(F)cc3)cs2)CC1)Nc1ccc2c(c1)OCO2`: the inhibition was -7.5% (inactive).

For the compound `Cc1cccnc1Nc1nc(-c2ccccn2)cs1`, the inhibition is -5.7% (inactive).

On to `C=CCn1c(=O)c2c(nc3n2CC(C)CN3c2cccc(OC)c2)n(C)c1=O` (stereo not drawn), for which the inhibition is -8.1% (inactive).

As for `COC(=O)c1c(NC(=O)c2ccc(S(=O)(=O)N3CCOCC3)cc2)sc2c1CCN(C)C2`, the inhibition was -2.4% (inactive).

Regarding `O=C1c2oc3ccccc3c(=O)c2C(c2cccc(F)c2)N1CCCO` (stereo not drawn), the inhibition is 6.3% (inactive).

For the compound `COc1ccc(S(=O)(=O)n2ccc(-c3ccc(OCCN(C)c4ccccn4)cc3)n2)cc1`, the inhibition is 11.9% (inactive).

For `CC(=O)c1ccc(Oc2cc(C)nc(-n3nc(C)cc3C)n2)cc1`, the inhibition was 11% (inactive).

For `Cc1nc(NC(C)C)c2oc3ccccc3c2n1`, the inhibition was 4.2% (inactive).

In the case of `CN1C(=O)N(C)C(=O)C2(Cc3ccccc3N3CCOCC32)C1=O` (stereo not drawn), the inhibition was -1.2% (inactive).

With `Cc1nonc1NC(=O)CSc1nc(C2CCCCC2)nc2ccccc12`, the inhibition was -6.5% (inactive).

Take `Cc1ccc(C(=O)CSc2nsc(C)c2C#N)cc1`: the inhibition is -11.1% (inactive).

For the compound `CCCCCCCCCCn1c2c(c(=N)c3c1CCC3)CCC2`, the inhibition is -24.6% (inactive).

For the origin of these results see PubChem BioAssay AID1249 (Columbia University Molecular Screening Center, 2008).
